Measurements published in patent US20220081435A1, “ANDROGEN RECEPTOR PROTEIN DEGRADERS” (THE REGENTS OF THE UNIVERSITY OF MICHIGAN, priority 2019, published 2022).
Read-outs that look alike come from different tables or passages of the source.

Target: T1, AR protein (Homo sapiens, UniProt P10275, T878A)
T1 construct: The percent AR protein degradation induced by these compounds at various concentrations in LNCaP cells; host or cells: LNCaP
T1 sequence (P10275 1-920 T878A): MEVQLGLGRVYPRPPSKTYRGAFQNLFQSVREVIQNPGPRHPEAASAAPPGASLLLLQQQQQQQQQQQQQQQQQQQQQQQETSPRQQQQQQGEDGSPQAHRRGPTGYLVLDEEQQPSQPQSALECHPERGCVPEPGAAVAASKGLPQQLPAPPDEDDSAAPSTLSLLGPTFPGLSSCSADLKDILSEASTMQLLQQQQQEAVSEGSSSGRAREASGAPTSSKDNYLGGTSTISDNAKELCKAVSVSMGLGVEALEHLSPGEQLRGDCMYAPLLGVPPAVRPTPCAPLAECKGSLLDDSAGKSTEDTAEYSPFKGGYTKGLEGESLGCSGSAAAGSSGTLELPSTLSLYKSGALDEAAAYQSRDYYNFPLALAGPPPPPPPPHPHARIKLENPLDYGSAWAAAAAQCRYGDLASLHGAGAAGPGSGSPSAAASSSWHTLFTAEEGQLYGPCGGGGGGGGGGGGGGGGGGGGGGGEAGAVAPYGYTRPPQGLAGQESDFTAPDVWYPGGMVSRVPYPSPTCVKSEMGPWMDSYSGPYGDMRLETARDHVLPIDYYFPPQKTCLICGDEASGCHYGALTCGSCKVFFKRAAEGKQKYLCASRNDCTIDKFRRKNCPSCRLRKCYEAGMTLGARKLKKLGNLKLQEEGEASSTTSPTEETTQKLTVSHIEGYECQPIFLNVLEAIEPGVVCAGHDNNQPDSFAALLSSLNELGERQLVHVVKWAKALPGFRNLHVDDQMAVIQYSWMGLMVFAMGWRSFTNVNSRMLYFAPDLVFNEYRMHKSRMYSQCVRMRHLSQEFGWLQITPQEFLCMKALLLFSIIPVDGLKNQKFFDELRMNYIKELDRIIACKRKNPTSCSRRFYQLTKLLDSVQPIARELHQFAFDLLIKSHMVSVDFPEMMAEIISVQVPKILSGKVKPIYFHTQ
Experiment: AR protein degradation in LNCaP cells (Western blotting)
Type: cell-based
Settings: LNCaP; for Dmax at 0.1 µM / Dmax at 1 µM / Dmax at 10 µM: read-out: % AR protein degradation in LNCaP Cells
Description: Cell lines and Cell Culture: All the LNCaP, VCaP and 22RV1 cells used were purchased from American Type Culture Collection (ATCC). […] All of the cells were supplemented with 10% fetal bovine serum (Invitrogen) at 37° C. in a humidified 5% CO2 incubator.
Western Blotting. Treated cells were lysed by RIPA buffer supplemented with protease and phosphatase inhibitors. […] Software ImageJ was used to quantify the percentage of AR degradation. The net protein bands and loading controls are calculated by deducting the background from the inverted band value. The final relative quantification values are the ratio of net band to net loading control.

[1] = 0.1 μM, treatment time 6 h, average of three independent experiments
[2] = 1 μM, treatment time 6 h, average of three independent experiments
[3] = 10 μM, treatment time 6 h, average of three independent experiments
[4] = treatment time 6 h, average of three independent experiments

Compound | Dmax at 0.1 µM [1] | Dmax at 1 µM [2] | Dmax at 10 µM [3] | Dmax at 0.1 µM (6 h) | Dmax at 1 µM (6 h) | Dmax at 10 µM (6 h) | Dmax at 0.01 µM [4]
Cc1ncsc1-c1ccc(CNC(=O)C2C[C@@H](O)CN2C(=O)[C@@H](NC(=O)CCNC(=O)c2ccc(N3C(=S)N(c4ccc(C#N)c(C(F)(F)F)c4)C(=O)C3(C)C)cc2F)C(C)(C)C)cc1 (stereo partly drawn) [Compound 8, (4R)-1-((S)-2-(3-(4-(3-(4-Cyano-3-(trifluoromethyl)phenyl)-5,5-dimethyl-4-oxo-2-thioxoimidazolidin-1-yl)-2-fluorobenzamido)propanamido)-3,3-dimethylbutanoyl)-4-hydroxy-N-(4-(4-methylthiazol-5-yl)benzyl)pyrrolidine-2-carboxamide] | 26% | 35% | 28% |  |  |  | 
Cc1ncsc1-c1ccc(CNC(=O)C2C[C@@H](O)CN2C(=O)[C@@H](NC(=O)CCCNC(=O)c2ccc(N3C(=S)N(c4ccc(C#N)c(C(F)(F)F)c4)C(=O)C3(C)C)cc2F)C(C)(C)C)cc1 (stereo partly drawn) [Compound 9, (4R)-1-((S)-2-(4-(4-(3-(4-Cyano-3-(trifluoromethyl)phenyl)-5,5-dimethyl-4-oxo-2-thioxoimidazolidin-1-yl)-2-fluorobenzamido)butanamido)-3,3-dimethylbutanoyl)-4-hydroxy-N-(4-(4-methylthiazol-5-yl)benzyl)pyrrolidine-2-carboxamide] | 15% | 23% | 33% |  |  |  | 
Cc1ncsc1-c1ccc(CNC(=O)C2C[C@@H](O)CN2C(=O)[C@@H](NC(=O)CCCCNC(=O)c2ccc(N3C(=S)N(c4ccc(C#N)c(C(F)(F)F)c4)C(=O)C3(C)C)cc2F)C(C)(C)C)cc1 (stereo partly drawn) [Compound 10, (4R)-1-((S)-2-(5-(4-(3-(4-Cyano-3-(trifluoromethyl)phenyl)-5,5-dimethyl-4-oxo-2-thioxoimidazolidin-1-yl)-2-fluorobenzamido)pentanamido)-3,3-dimethylbutanoyl)-4-hydroxy-N-(4-(4-methylthiazol-5-yl)benzyl)pyrrolidine-2-carboxamide] |  |  |  | 16% | 20% | 25% | 
Cc1ncsc1-c1ccc(CNC(=O)C2C[C@@H](O)CN2C(=O)[C@@H](NC(=O)CCCCCNC(=O)c2ccc(N3C(=S)N(c4ccc(C#N)c(C(F)(F)F)c4)C(=O)C3(C)C)cc2F)C(C)(C)C)cc1 (stereo partly drawn) [Compound 11, (4R)-1-((S)-2-(6-(4-(3-(4-Cyano-3-(trifluoromethyl)phenyl)-5,5-dimethyl-4-oxo-2-thioxoimidazolidin-1-yl)-2-fluorobenzamido)hexanamido)-3,3-dimethylbutanoyl)-4-hydroxy-N-(4-(4-methylthiazol-5-yl)benzyl)pyrrolidine-2-carboxamide] | 11% | 25% | 29% |  |  |  | 
Cc1ncsc1-c1ccc(CNC(=O)C2C[C@@H](O)CN2C(=O)[C@@H](NC(=O)CCCCCCNC(=O)c2ccc(N3C(=S)N(c4ccc(C#N)c(C(F)(F)F)c4)C(=O)C3(C)C)cc2F)C(C)(C)C)cc1 (stereo partly drawn) [Compound 12, (4R)-1-((S)-2-(7-(4-(3-(4-Cyano-3-(trifluoromethyl)phenyl)-5,5-dimethyl-4-oxo-2-thioxoimidazolidin-1-yl)-2-fluorobenzamido)heptanamido)-3,3-dimethylbutanoyl)-4-hydroxy-N-(4-(4-methylthiazol-5-yl)benzyl)pyrrolidine-2-carboxamide] | 54% | 84% | 64% |  |  |  | 
Cc1ncsc1-c1ccc(CNC(=O)C2C[C@@H](O)CN2C(=O)[C@@H](NC(=O)CCCCCCCNC(=O)c2ccc(N3C(=S)N(c4ccc(C#N)c(C(F)(F)F)c4)C(=O)C3(C)C)cc2F)C(C)(C)C)cc1 (stereo partly drawn) [Compound 13, (4R)-1-((S)-2-(8-(4-(3-(4-Cyano-3-(trifluoromethyl)phenyl)-5,5-dimethyl-4-oxo-2-thioxoimidazolidin-1-yl)-2-fluorobenzamido)octanamido)-3,3-dimethylbutanoyl)-4-hydroxy-N-(4-(4-methylthiazol-5-yl)benzyl)pyrrolidine-2-carboxamide] | 29% | 65% |  |  |  |  | 8%
Cc1ncsc1-c1ccc(CNC(=O)C2C[C@@H](O)CN2C(=O)[C@@H](NC(=O)CCCCCCCCNC(=O)c2ccc(N3C(=S)N(c4ccc(C#N)c(C(F)(F)F)c4)C(=O)C3(C)C)cc2F)C(C)(C)C)cc1 (stereo partly drawn) [Compound 14, (4R)-1-((S)-2-(9-(4-(3-(4-Cyano-3-(trifluoromethyl)phenyl)-5,5-dimethyl-4-oxo-2-thioxoimidazolidin-1-yl)-2-fluorobenzamido)nonanamido)-3,3-dimethylbutanoyl)-4-hydroxy-N-(4-(4-methylthiazol-5-yl)benzyl)pyrrolidine-2-carboxamide] | 66% | 87% |  |  |  |  | 15%
Cc1ncsc1-c1ccc(CNC(=O)C2C[C@@H](O)CN2C(=O)[C@@H](NC(=O)CCCCCCCCCNC(=O)c2ccc(N3C(=S)N(c4ccc(C#N)c(C(F)(F)F)c4)C(=O)C3(C)C)cc2F)C(C)(C)C)cc1 (stereo partly drawn) [Compound 15, (4R)-1-((S)-2-(10-(4-(3-(4-Cyano-3-(trifluoromethyl)phenyl)-5,5-dimethyl-4-oxo-2-thioxoimidazolidin-1-yl)-2-fluorobenzamido)decanamido)-3,3-dimethylbutanoyl)-4-hydroxy-N-(4-(4-methylthiazol-5-yl)benzyl)pyrrolidine-2-carboxamide] | 48% | 88% |  |  |  |  | 10%
Cc1ncsc1-c1ccc(CNC(=O)C2C[C@@H](O)CN2C(=O)[C@@H](NC(=O)CCCCCCCCCCNC(=O)c2ccc(N3C(=S)N(c4ccc(C#N)c(C(F)(F)F)c4)C(=O)C3(C)C)cc2F)C(C)(C)C)cc1 (stereo partly drawn) [Compound 16, (4R)-1-((S)-2-(11-(4-(3-(4-Cyano-3-(trifluoromethyl)phenyl)-5,5-dimethyl-4-oxo-2-thioxoimidazolidin-1-yl)-2-fluorobenzamido)undecanamido)-3,3-dimethylbutanoyl)-4-hydroxy-N-(4-(4-methylthiazol-5-yl)benzyl)pyrrolidine-2-carboxamide] | 48% | 86% |  |  |  |  | 11%
Cc1ncsc1-c1ccc(CNC(=O)C2C[C@@H](O)CN2C(=O)[C@@H](NC(=O)CCCCCCCCCCCNC(=O)c2ccc(N3C(=S)N(c4ccc(C#N)c(C(F)(F)F)c4)C(=O)C3(C)C)cc2F)C(C)(C)C)cc1 (stereo partly drawn) [Compound 17, (4R)-1-((S)-2-(12-(4-(3-(4-Cyano-3-(trifluoromethyl)phenyl)-5,5-dimethyl-4-oxo-2-thioxoimidazolidin-1-yl)-2-fluorobenzamido)dodecanamido)-3,3-dimethylbutanoyl)-4-hydroxy-N-(4-(4-methylthiazol-5-yl)benzyl)pyrrolidine-2-carboxamide] | 30% | 69% | 75% |  |  |  | 
Cc1ncsc1-c1ccc(CNC(=O)C2C[C@@H](O)CN2C(=O)[C@@H](NC(=O)CCOCCOCCNC(=O)c2ccc(N3C(=S)N(c4ccc(C#N)c(C(F)(F)F)c4)C(=O)C3(C)C)cc2F)C(C)(C)C)cc1 (stereo partly drawn) [Compound 18, (4R)-1-((S)-13-(tert-Butyl)-1-(4-(3-(4-cyano-3-(trifluoromethyl)phenyl)-5,5-dimethyl-4-oxo-2-thioxoimidazolidin-1-yl)-2-fluorophenyl)-1,11-dioxo-5,8-dioxa-2,12-diazatetradecan-14-oyl)-4-hydroxy-N-(4-(4-methylthiazol-5-yl)benzyl)pyrrolidine-2-carboxamide] | 32% | 35% | 40% |  |  |  | 
Cc1ncsc1-c1ccc(CNC(=O)C2C[C@@H](O)CN2C(=O)[C@@H](NC(=O)CCCCCCc2ccc(C#Cc3ccc(N4C(=S)N(c5ccc(C#N)c(C(F)(F)F)c5)C(=O)C4(C)C)cc3)cn2)C(C)(C)C)cc1 (stereo partly drawn) [Compound 19, (4R)-1-((S)-2-(7-(5-((4-(3-(4-Cyano-3-(trifluoromethyl)phenyl)-5,5-dimethyl-4-oxo-2-thioxoimidazolidin-1-yl)phenyl)ethynyl)pyridin-2-yl)heptanamido)-3,3-dimethylbutanoyl)-4-hydroxy-N-(4-(4-methylthiazol-5-yl)benzyl)pyrrolidine-2-carboxamide] | 63% | 96% |  |  |  |  | 30%
